IC50 data for 16 compounds are collected here from ChEMBL document CHEMBL4028801, “A multifactorial approach to hepatobiliary transporter assessment enables improved therapeutic compound development” (Toxicol Sci, 2013).

The target in one experiment is Bile salt export pump (Homo sapiens, UniProt O95342). Kind of experiment: Inhibition of human BSEP overexpressed in Sf9 cell membrane vesicles assessed as uptake of [3H]-taurocholate in presence of ATP measured after 15 to 20 mins by membrane vesicle transport assay. The experiment is classed as ADME, cell-based.
Experiment [1] deals with ATP-binding cassette sub-family C member 2 (Homo sapiens, UniProt Q92887). Kind of experiment: Inhibition of human MRP2 overexpressed in Sf9 cell membrane vesicles assessed as uptake of [3H]-estradiol-17beta-D-glucuronide in presence of ATP and GSH measured after 20 mins by membrane vesicle transport assay.
In experiment [2] the target is ATP-binding cassette sub-family C member 3 (Homo sapiens, UniProt O15438). The experiment in a line: Inhibition of human MRP3 overexpressed in Sf9 insect cell membrane vesicles assessed as uptake of [3H]-estradiol-17beta-D-glucuronide in presence of ATP and GSH measured after 10 mins by membrane vesicle transport assay. The experiment is classed as ADME, cell-based.

Experiment [3] deals with T1, ATP-binding cassette sub-family C member 4 (Homo sapiens, UniProt O15439).
T1 sequence (O15439 whole entry): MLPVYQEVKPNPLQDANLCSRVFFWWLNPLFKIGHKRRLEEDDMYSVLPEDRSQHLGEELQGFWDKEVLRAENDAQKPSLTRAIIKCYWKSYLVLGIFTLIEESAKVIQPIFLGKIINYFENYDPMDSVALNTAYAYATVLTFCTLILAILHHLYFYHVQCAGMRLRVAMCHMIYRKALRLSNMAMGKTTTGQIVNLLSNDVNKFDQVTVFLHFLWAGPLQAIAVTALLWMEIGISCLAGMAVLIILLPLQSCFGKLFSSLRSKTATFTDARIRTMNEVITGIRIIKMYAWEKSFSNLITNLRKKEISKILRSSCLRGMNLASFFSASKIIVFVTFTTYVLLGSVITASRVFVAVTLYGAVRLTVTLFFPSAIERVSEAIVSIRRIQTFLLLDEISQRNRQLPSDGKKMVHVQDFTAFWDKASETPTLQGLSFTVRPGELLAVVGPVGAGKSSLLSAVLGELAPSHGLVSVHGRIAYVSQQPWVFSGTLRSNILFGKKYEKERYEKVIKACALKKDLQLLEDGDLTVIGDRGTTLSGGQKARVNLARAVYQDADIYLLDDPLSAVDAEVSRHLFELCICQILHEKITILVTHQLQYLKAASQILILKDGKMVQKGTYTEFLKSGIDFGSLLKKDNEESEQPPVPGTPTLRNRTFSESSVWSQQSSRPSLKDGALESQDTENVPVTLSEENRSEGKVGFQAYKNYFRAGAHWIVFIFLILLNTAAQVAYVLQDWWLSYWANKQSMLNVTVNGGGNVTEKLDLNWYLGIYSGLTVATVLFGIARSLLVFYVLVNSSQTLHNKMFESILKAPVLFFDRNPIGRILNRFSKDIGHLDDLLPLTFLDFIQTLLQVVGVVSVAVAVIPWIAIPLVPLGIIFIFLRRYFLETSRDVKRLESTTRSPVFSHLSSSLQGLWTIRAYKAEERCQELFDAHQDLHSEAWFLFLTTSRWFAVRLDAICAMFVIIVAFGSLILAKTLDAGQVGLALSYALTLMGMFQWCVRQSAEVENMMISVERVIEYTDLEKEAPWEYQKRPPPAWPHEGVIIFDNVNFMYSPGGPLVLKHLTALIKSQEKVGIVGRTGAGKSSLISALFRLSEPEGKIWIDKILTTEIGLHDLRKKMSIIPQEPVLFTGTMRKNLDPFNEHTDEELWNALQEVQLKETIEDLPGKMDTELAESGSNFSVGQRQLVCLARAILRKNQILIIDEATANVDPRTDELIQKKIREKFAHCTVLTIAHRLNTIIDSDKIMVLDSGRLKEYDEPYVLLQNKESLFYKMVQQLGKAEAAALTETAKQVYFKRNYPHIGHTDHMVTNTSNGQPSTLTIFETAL
The experiment in a line: Inhibition of human MRP4 overexpressed in Sf9 cell membrane vesicles assessed as uptake of [3H]-estradiol-17beta-D-glucuronide in presence of ATP and GSH measured after 20 mins by membrane vesicle transport assay. The experiment is classed as ADME, cell-based.

Molecules are shown by their SMILES. Where a name gives a salt, the structure may show the parent alone. Where only a bound is given, the exact number is not on record here.

Chain of ATP-binding cassette sub-family C member 2 (Q92887 whole entry): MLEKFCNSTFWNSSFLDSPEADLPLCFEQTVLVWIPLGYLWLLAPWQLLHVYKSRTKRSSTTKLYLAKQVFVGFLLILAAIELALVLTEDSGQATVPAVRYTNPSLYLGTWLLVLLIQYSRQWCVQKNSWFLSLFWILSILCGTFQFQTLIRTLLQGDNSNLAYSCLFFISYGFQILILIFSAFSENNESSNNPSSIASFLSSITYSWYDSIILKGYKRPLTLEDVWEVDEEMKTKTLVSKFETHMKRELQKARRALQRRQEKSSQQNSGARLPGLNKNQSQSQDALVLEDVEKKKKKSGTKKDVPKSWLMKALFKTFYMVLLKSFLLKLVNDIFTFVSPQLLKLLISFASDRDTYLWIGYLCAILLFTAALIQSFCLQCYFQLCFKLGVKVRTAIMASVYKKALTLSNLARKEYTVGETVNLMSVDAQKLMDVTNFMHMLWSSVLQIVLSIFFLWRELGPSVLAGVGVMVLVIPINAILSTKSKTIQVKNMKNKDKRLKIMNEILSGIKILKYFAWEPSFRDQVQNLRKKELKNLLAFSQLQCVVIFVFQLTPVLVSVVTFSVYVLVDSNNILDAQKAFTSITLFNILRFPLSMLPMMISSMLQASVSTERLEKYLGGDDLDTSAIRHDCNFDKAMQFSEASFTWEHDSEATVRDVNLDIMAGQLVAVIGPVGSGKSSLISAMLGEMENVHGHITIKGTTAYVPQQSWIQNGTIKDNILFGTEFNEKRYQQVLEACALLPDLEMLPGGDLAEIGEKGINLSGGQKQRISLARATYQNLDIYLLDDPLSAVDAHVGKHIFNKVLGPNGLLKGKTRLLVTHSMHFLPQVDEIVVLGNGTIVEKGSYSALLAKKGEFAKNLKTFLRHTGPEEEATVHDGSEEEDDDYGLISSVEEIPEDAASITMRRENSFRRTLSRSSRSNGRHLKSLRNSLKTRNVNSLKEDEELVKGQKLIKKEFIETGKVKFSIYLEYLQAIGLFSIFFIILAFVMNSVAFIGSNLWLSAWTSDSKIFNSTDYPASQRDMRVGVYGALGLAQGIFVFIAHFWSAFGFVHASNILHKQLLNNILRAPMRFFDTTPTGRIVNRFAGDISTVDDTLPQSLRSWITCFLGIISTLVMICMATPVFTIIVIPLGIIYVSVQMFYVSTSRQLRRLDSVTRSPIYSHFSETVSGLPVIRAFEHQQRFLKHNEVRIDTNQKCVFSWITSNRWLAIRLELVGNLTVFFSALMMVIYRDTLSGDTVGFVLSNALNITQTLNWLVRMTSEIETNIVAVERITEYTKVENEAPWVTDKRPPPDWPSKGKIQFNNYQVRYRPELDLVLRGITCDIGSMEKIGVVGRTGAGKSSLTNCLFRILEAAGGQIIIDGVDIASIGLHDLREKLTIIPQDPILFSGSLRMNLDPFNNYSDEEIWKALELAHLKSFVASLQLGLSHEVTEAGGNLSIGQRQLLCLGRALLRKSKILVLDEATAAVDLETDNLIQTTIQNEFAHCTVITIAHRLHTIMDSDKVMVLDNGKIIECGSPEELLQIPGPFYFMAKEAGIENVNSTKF
Chain of Bile salt export pump (O95342 whole entry): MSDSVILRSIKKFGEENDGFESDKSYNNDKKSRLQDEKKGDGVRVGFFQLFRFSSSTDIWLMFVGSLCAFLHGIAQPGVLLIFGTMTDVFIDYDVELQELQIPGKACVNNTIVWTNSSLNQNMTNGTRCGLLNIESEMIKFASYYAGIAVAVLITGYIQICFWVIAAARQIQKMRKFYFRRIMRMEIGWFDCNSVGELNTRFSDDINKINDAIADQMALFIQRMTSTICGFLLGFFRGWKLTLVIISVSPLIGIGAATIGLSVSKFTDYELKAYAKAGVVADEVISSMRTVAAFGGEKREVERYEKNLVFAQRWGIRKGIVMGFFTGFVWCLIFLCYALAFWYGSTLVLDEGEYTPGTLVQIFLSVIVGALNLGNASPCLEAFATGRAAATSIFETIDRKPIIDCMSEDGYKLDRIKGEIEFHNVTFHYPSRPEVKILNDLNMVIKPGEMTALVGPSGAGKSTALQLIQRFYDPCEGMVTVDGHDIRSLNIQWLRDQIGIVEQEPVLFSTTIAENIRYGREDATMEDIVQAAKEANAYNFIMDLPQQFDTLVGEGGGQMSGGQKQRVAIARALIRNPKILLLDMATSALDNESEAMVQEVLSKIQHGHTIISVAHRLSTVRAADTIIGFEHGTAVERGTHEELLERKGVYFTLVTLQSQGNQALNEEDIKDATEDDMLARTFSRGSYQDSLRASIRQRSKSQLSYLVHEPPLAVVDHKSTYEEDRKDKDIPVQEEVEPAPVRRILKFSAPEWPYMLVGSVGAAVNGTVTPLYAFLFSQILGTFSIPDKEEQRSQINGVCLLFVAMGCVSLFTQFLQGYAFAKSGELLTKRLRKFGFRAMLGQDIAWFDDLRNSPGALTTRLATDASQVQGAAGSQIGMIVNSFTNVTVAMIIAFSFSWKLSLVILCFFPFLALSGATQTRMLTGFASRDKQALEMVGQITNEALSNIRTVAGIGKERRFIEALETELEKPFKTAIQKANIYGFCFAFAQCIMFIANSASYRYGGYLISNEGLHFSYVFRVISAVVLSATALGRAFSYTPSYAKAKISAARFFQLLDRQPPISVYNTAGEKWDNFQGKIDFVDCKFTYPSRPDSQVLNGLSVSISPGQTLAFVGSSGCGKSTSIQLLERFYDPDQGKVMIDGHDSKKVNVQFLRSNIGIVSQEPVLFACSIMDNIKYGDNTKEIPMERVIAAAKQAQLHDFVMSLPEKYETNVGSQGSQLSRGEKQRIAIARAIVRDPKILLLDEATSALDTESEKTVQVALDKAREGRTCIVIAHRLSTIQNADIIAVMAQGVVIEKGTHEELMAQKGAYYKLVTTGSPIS
Chain of ATP-binding cassette sub-family C member 3 (O15438 whole entry): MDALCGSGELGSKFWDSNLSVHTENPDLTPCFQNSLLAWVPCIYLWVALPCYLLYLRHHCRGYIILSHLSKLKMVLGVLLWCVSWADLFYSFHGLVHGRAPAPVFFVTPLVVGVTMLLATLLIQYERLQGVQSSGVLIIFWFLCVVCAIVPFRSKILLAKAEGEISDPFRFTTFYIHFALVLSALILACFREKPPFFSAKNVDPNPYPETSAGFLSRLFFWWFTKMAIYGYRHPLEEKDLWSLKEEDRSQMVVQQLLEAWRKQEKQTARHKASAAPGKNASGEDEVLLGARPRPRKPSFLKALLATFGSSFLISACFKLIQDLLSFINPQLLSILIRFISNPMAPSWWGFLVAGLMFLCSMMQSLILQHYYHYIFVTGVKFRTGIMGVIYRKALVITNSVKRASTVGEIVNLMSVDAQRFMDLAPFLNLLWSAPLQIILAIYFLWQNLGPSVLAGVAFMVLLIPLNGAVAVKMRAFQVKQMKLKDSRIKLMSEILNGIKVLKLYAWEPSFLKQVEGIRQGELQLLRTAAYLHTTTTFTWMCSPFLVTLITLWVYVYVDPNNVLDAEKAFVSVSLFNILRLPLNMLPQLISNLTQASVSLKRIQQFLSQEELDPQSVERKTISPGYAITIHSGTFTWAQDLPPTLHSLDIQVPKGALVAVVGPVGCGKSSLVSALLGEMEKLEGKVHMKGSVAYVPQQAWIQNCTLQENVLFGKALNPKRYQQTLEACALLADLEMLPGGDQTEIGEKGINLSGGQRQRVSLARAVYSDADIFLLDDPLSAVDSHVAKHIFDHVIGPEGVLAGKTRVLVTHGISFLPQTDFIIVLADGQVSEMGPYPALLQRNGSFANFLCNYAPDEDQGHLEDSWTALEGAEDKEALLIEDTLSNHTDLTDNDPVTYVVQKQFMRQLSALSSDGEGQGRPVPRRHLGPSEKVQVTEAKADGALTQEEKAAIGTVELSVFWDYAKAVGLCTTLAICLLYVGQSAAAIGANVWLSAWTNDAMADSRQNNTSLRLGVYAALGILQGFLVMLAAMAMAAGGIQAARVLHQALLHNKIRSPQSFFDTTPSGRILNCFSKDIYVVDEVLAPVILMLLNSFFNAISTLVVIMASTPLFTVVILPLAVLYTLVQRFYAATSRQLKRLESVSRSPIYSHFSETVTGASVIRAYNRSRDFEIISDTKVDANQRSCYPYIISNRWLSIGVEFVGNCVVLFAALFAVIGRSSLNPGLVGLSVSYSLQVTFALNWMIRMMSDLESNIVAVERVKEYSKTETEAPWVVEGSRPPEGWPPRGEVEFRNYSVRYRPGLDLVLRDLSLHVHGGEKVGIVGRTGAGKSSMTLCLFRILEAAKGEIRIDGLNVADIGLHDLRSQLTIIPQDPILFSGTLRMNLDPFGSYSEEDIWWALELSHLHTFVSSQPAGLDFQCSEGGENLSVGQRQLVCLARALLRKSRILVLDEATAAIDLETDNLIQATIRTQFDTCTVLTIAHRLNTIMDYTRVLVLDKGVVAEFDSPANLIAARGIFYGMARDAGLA

With `CC(C(=O)O)c1ccc2c(c1)Cc1cccnc1O2` (centres undefined) [PRANOPROFEN], the IC50 on Bile salt export pump is over 133 µM; in experiment [1], over 133 µM; in experiment [2], over 133 µM; in experiment [3], 9.8 µM.
With `CC[C@H](C)C(=O)O[C@H]1CCC=C2C=C[C@H](C)[C@H](CC[C@@H]3C[C@@H](O)CC(=O)O3)[C@H]21` [MEVASTATIN], the IC50 is 27 µM on Bile salt export pump, over 133 µM in experiment [1], over 133 µM in experiment [2] and over 133 µM in experiment [3].
As to `N[C@@H](Cc1ccc(N(CCCl)CCCl)cc1)C(=O)O`, the IC50 (on Bile salt export pump; in experiment [1]; in experiment [2]; in experiment [3]) was over 133 µM each time.
As for `CC[C@H]1OC(=O)[C@H](C)[C@@H](O[C@H]2C[C@@](C)(OC)[C@@H](O)[C@H](C)O2)[C@H](C)[C@@H](O[C@@H]2O[C@H](C)C[C@H](N(C)C)[C@H]2O)[C@](C)(OC)C[C@@H](C)C(=O)[C@H](C)[C@@H](O)[C@]1(C)O` [CLARITHROMYCIN], the IC50 (at Bile salt export pump; in experiment [1]; in experiment [2]; in experiment [3]) was over 133 µM throughout.
For the compound `CN(C)CCc1c[nH]c2ccc(Cn3cncn3)cc12` [RIZATRIPTAN BENZOATE], the IC50 (at Bile salt export pump; in experiment [1]; in experiment [2]; in experiment [3]) was over 133 µM in each case.
`CC[C@@H](C(N)=O)N1CCCC1=O`: the IC50 (on Bile salt export pump; in experiment [1]; in experiment [2]; in experiment [3]) was over 133 µM each time.
Consider `C=C[C@H]1C[N@@]2CC[C@H]1C[C@H]2[C@H](O)c1ccnc2ccc(OC)cc12` [QUININE], for which the 50% inhibitory concentration (IC50) (on Bile salt export pump; in experiment [1]; in experiment [2]; in experiment [3]) was over 133 µM each time.
Take `COc1ccc2cc([C@H](C)C(=O)O)ccc2c1` [NAPROXEN]: the IC50 (on Bile salt export pump; in experiment [1]; in experiment [2]; in experiment [3]) was over 133 µM throughout.
With `CN(C/C=C/C#CC(C)(C)C)Cc1cccc2ccccc12` [TERBINAFINE HYDROCHLORIDE], the IC50 (at Bile salt export pump; in experiment [1]; in experiment [2]; in experiment [3]) was over 133 µM in each case.
For `COc1ccc2c3c1O[C@H]1C[C@@H](O)C=C[C@@]31CCN(C)C2` [GALANTAMINE], the IC50 (at Bile salt export pump; in experiment [1]; in experiment [2]; in experiment [3]) was over 133 µM each time.
For the compound `CCCCN1CCCCC1C(=O)Nc1c(C)cccc1C` (centres undefined) [BUPIVACAINE HYDROCHLORIDE], the IC50 (on Bile salt export pump; in experiment [1]; in experiment [2]; in experiment [3]) was over 133 µM throughout.
Take `CN1CCOC(c2ccccc2)c2ccccc2C1` (centres undefined) [NEFOPAM]: the IC50 (at Bile salt export pump; in experiment [1]; in experiment [2]; in experiment [3]) was over 133 µM in each case.
As for `CCC[C@H](N[C@@H](C)C(=O)N1[C@H](C(=O)O)C[C@@H]2CCCC[C@@H]21)C(=O)OCC` [PERINDOPRIL ERBUMINE], the IC50 (at Bile salt export pump; in experiment [1]; in experiment [2]; in experiment [3]) was over 133 µM in each case.
Regarding `CCCCNC(=O)NS(=O)(=O)c1ccc(C)cc1` [TOLBUTAMIDE], the IC50 (on Bile salt export pump; in experiment [1]; in experiment [2]; in experiment [3]) was over 133 µM throughout.
As to `Cc1nnc(C(C)C)n1[C@@H]1C[C@H]2CC[C@@H](C1)N2CC[C@H](NC(=O)C1CCC(F)(F)CC1)c1ccccc1` [MARAVIROC], the IC50 at Bile salt export pump was 110 µM; in experiment [1] it was over 133 µM; in experiment [2], over 133 µM; in experiment [3], over 133 µM.
With `Cn1c(=O)c2[nH]cnc2n(C)c1=O` [THEOPHYLLINE], the 50% inhibitory concentration (IC50) (on Bile salt export pump; in experiment [1]; in experiment [2]; in experiment [3]) was over 133 µM throughout.
